According to ChEMBL document CHEMBL1139788, “Potent, nonsteroidal selective androgen receptor modulators (SARMs) based on 8H-[1,4]oxazino[2,3-f]quinolin-8-ones” (Bioorg Med Chem Lett, 2007):
Activity calls are given as the source filed them. The calls are words filed in the database; no cut-off is given here.

Columns and labels:
Androgen receptor [1] = target: T1, Androgen receptor (Homo sapiens, UniProt P10275)
T1 sequence (P10275 whole entry): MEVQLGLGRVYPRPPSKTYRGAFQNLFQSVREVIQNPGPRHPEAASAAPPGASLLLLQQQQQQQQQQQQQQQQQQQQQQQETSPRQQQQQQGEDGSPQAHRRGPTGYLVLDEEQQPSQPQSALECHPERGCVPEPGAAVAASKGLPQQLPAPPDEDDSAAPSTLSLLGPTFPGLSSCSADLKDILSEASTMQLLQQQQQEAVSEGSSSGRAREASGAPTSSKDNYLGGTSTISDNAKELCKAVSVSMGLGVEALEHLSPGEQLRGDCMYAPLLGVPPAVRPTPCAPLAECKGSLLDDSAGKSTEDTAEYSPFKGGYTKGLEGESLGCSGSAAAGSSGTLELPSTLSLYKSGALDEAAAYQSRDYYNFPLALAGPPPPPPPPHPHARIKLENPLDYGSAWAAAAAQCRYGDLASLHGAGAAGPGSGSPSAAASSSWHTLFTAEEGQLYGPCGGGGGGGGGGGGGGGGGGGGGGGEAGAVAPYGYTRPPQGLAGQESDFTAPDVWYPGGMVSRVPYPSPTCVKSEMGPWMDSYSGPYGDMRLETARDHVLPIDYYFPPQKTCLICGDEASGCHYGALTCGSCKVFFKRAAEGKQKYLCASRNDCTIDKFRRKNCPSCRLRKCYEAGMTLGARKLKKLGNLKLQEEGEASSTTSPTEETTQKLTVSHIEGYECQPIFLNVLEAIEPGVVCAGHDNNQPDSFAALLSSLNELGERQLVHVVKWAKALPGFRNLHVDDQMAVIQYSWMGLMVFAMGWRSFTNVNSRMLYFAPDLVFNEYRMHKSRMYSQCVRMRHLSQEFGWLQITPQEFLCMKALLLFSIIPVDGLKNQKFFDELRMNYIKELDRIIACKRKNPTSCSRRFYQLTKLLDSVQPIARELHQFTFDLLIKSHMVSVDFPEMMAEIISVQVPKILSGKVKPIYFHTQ
Description: Agonist activity at human androgen receptor expressed in CV1 cells by transcriptional activation assay

Androgen receptor [2] = target: T1, Androgen receptor; remark: listed apart in the source
Description: Antagonist activity at human androgen receptor expressed in CV1 cells by transcriptional activation assay

[3] = target: T2, Progesterone receptor (Homo sapiens) (UniProt P06401); experiment: Antagonist activity at progesterone receptor by transactivation assay; assay type: functional
T2 sequence (whole entry): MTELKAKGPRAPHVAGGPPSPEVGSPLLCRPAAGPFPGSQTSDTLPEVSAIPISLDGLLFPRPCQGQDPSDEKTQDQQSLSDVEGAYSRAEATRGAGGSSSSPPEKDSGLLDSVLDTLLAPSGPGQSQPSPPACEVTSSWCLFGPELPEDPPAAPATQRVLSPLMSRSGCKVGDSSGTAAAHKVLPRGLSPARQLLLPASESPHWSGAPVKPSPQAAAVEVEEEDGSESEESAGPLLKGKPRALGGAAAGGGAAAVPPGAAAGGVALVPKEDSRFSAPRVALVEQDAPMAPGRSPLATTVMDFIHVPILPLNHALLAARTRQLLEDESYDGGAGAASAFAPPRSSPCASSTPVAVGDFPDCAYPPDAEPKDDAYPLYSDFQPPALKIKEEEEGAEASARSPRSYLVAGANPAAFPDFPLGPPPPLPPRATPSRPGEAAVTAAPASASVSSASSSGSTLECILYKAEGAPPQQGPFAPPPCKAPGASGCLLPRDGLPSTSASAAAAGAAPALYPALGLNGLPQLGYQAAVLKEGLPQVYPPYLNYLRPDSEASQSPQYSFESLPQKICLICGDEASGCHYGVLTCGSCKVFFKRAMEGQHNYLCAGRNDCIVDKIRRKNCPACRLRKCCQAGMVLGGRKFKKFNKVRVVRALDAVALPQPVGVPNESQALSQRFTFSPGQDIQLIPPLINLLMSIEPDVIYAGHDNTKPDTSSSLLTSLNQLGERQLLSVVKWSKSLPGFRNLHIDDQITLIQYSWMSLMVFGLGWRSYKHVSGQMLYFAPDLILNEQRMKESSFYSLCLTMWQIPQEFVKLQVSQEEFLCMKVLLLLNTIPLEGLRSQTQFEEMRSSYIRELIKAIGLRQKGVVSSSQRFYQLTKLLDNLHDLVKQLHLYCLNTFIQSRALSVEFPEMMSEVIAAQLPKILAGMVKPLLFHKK

[4] = target: T3, Glucocorticoid receptor (Homo sapiens) (UniProt P04150); experiment: (§1) Antagonist activity at glucocorticoid receptor by transactivation assay; assay type: functional
T3 sequence (whole entry): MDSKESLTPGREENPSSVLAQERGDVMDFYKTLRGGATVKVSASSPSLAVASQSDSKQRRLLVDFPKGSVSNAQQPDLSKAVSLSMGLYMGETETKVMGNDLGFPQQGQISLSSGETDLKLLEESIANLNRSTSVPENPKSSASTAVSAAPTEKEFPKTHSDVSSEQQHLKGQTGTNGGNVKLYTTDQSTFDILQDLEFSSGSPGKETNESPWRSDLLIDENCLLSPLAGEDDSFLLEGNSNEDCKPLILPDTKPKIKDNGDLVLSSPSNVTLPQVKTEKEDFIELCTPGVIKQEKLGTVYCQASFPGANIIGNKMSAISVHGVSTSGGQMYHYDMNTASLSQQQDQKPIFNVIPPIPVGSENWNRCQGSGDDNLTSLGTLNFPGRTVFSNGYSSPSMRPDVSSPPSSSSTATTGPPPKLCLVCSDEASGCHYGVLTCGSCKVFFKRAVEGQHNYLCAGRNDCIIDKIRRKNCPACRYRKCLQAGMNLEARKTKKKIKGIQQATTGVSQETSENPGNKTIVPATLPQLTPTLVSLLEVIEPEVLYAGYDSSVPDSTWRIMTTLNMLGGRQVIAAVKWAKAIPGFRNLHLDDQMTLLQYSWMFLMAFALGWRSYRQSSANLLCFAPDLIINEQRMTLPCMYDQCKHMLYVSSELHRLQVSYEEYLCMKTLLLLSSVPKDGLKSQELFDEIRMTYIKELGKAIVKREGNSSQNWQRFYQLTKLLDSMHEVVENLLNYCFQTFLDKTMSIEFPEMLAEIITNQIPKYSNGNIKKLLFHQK

[5] = target: T4, Mineralocorticoid receptor (Homo sapiens) (UniProt P08235); experiment: Antagonist activity at mineralocorticoid receptor by transactivation assay; assay type: functional
T4 sequence (whole entry): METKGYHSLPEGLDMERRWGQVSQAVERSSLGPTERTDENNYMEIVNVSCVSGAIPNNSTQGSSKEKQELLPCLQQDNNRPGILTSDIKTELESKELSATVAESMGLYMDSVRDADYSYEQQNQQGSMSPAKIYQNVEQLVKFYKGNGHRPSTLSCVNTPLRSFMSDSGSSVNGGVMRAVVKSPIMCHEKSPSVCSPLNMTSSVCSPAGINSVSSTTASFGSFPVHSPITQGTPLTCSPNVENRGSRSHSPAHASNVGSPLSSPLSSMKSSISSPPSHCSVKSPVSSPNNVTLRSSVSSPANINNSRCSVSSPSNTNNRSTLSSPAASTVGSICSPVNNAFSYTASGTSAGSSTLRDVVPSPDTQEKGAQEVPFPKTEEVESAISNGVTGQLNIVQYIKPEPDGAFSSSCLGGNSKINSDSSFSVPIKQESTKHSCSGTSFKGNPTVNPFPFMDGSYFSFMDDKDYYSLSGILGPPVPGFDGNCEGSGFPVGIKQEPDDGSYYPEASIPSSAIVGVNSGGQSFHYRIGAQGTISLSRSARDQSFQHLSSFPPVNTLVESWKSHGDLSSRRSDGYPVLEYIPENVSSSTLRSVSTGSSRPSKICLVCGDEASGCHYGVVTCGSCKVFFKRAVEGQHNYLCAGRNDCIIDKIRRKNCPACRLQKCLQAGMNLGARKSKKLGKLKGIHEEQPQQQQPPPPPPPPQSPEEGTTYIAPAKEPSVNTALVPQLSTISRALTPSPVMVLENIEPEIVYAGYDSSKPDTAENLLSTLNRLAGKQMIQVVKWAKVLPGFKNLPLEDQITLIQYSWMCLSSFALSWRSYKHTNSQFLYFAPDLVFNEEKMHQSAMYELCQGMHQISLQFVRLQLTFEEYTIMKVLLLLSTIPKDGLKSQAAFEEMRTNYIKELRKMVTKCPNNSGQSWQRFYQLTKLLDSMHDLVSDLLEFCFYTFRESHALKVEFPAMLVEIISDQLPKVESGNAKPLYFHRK

[6] = target: T2, Progesterone receptor (Homo sapiens); experiment: Agonist activity at progesterone receptor by transactivation assay; assay type: functional
[7] = target: T3, Glucocorticoid receptor (Homo sapiens); experiment: Agonist activity at glucocorticoid receptor by transactivation assay; assay type: functional
[8] = target: T4, Mineralocorticoid receptor (Homo sapiens); experiment: Agonist activity at mineralocorticoid receptor by transactivation assay; assay type: functional
Rattus norvegicus [9] = experiment: Effect on levator ani muscle weight maintenance in 2-week castrated mature rat model at 10 mg/kg; assay type: functional, organism-based; set-up: dose 10 mg/kg
Rattus norvegicus [10] = experiment: Reduced activity on ventral prostate weight in 2-week castrated mature rat model at 100 mg/kg; assay type: functional, organism-based; set-up: dose 100 mg/kg; details: Prostate gland
Glucocorticoid receptor = target: T5, Glucocorticoid receptor (Homo sapiens, UniProt P04150); experiment: as §1; assay type: functional
T5 sequence (P04150 whole entry): T3 sequence (whole entry)

| Compound | EC50 (Androgen receptor [1]) | IC50 (Androgen receptor [2]) | further results |
| --- | --- | --- | --- |
| CCCN1c2ccc3[nH]c(=O)cc(C(F)(F)F)c3c2OC[C@H]1CC | 394 nM | > 10000 nM |  |
| O=c1cc(C(F)(F)F)c2c3c(ccc2[nH]1)N(CC1CC1)[C@@H](c1ccccc1)CO3 | 18 nM | > 10000 nM |  |
| CC[C@@H]1COc2c(ccc3[nH]c(=O)cc(C(F)(F)F)c23)N1CC(F)(F)F | 1 nM | > 10000 nM | Efficacy [3]: 94%; Efficacy [4]: 98%; Activity [5]: inactive; Activity [6]: inactive; Activity [7]: inactive; Activity [8]: inactive; Activity (Rattus norvegicus [9]): Active; Activity (Rattus norvegicus [10]): Active |
| CC(C)[C@@H]1COc2c(ccc3[nH]c(=O)cc(C(F)(F)F)c23)N1C | 276 nM |  |  |
| O=c1cc(C(F)(F)F)c2c3c(ccc2[nH]1)N(CC1CC1)C(c1ccccc1)CO3 (stereo not given) | 3.5 nM | > 10000 nM |  |
| CCN1c2ccc3[nH]c(=O)cc(C(F)(F)F)c3c2OC[C@H]1C | 420 nM |  |  |
| O=c1cc(C(F)(F)F)c2c3c(ccc2[nH]1)N(CC(F)(F)F)CCO3 | 190 nM |  |  |
| CC[C@@H]1COc2c(ccc3[nH]c(=O)cc(C(F)(F)F)c23)N1C | > 10000 nM |  |  |
| CCC[C@@H]1COc2c(ccc3[nH]c(=O)cc(C(F)(F)F)c23)N1 | > 10000 nM | 113 nM |  |
| CC(C)C[C@@H]1COc2c(ccc3[nH]c(=O)cc(C(F)(F)F)c23)N1CC(F)(F)F | 98 nM |  |  |
| CC[C@@H]1COc2c(ccc3[nH]c(=O)cc(C(F)(F)F)c23)N1CC(C)C | 227 nM | > 10000 nM |  |
| CC[C@@H]1COc2c(ccc3[nH]c(=O)cc(C(F)(F)F)c23)N1CC(C)(C)O | 300 nM | > 10000 nM |  |
| C=CCN1c2ccc3[nH]c(=O)cc(C(F)(F)F)c3c2OC[C@H]1CC | 51 nM | > 10000 nM |  |
| O=c1cc(C(F)(F)F)c2c3c(ccc2[nH]1)N(CC1CC1)[C@H](c1ccccc1)CO3 | > 10000 nM | 45 nM |  |
| C=CCN1c2ccc3[nH]c(=O)cc(C(F)(F)F)c3c2OC[C@H]1C(C)C |  | > 10000 nM |  |
| CC(C)[C@@H]1COc2c(ccc3[nH]c(=O)cc(C(F)(F)F)c23)N1CC(F)(F)F | 20 nM | > 10000 nM |  |
| O=c1cc(C(F)(F)F)c2c3c(ccc2[nH]1)N[C@H](c1ccccc1)CO3 | > 10000 nM | 1480 nM |  |
| CC[C@@H]1COc2c(ccc3[nH]c(=O)cc(C(F)(F)F)c23)N1CC |  | > 10000 nM |  |
| O=c1cc(C(F)(F)F)c2c3c(ccc2[nH]1)NCCO3 | > 10000 nM | 1500 nM |  |
| C[C@@H]1COc2c(ccc3[nH]c(=O)cc(C(F)(F)F)c23)N1C | > 10000 nM |  |  |
| CCN1c2ccc3[nH]c(=O)cc(C(F)(F)F)c3c2OC[C@H]1C(C)C |  | > 10000 nM |  |
| CC[C@@H]1COc2c(ccc3[nH]c(=O)cc(C(F)(F)F)c23)N1 | > 10000 nM | 84 nM | Efficacy [3]: 42%; Activity [5]: inactive; Activity [6]: inactive; Activity [7]: inactive; Activity [8]: inactive |
| C[C@@H]1COc2c(ccc3[nH]c(=O)cc(C(F)(F)F)c23)N1CC(F)(F)F | 5.4 nM | > 10000 nM | Efficacy [3]: 40%; Efficacy [4]: 53%; IC50 (Glucocorticoid receptor): 3200 nM; Activity [5]: inactive; Activity [6]: inactive; Activity [7]: inactive; Activity [8]: inactive |
| CCCN1c2ccc3[nH]c(=O)cc(C(F)(F)F)c3c2OC[C@H]1C | 406 nM |  |  |
| O=c1cc(C(F)(F)F)c2c3c(ccc2[nH]1)N(CC(F)(F)F)[C@H](Cc1ccccc1)CO3 | 43 nM | > 10000 nM |  |
